Laboratory results published in patent publication US10300071B2, “Compositions and methods for inhibition of mycobacteria” (priority 2014, dated 2019).
In brackets after ≈: the same amount, converted by molar mass. Where two headings read alike, the source gives them in different places.

Experiments:
[1] = Pharmacokinetic studies in mice, plasma concentration after gavage (LC/MS); settings: for peak plasma concentration, 30 minutes after gavage / peak plasma concentration, 90 minutes after gavage: 100 mg/kg gavage, PEG or canola oil; for Plasma conc. 24 Hrs. after 1st dose / Plasma conc. 24 Hrs. after last dose: oral, 1 dose/day x 4 days, NZ-331 200 mg/kg, NZ-332 and NZ-369 100 mg/kg; for peak plasma concentration (FIG. 6A): two doses 200 mg/kg 8 h apart, approx. 12 hours after first dose, 4 hours after second
Mtb strain mc^2-7000 = test: microbe, parasite or virus in culture; assay type: cell-based, Mycobacterium tuberculosis; settings: Mycobacterium tuberculosis, 144 h
Mtb AccD6 = Mtb AccD6 (Mycobacterium tuberculosis, UniProt P9WQH5); test: biochemical; assay type: biochemical
Sequence of Mtb AccD6 (P9WQH5 whole entry, looked up): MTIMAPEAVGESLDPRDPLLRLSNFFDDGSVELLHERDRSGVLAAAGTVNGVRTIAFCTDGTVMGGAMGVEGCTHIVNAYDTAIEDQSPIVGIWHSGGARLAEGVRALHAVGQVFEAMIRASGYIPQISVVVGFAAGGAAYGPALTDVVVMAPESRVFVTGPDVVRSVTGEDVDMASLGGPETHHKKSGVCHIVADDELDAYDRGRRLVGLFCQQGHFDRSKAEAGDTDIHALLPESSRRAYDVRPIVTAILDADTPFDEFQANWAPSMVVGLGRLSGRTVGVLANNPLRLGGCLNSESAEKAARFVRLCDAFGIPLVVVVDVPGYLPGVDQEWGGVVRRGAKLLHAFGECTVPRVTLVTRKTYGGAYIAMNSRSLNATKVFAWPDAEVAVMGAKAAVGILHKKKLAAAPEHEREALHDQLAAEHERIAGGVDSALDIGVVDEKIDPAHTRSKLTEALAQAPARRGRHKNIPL

plasma protein = test: Plasma protein binding assay
Protocol: Protein plasma binding assays were conducted in female mice for each of the arylphenoxypropionate derivatives quizalofop-p, quizalofop-p-ethyl, fenoxaprop-p, and fenoxaprop-p-ethyl.

[2] = rat, in vivo
in vivo = settings: rat
[3] = 6 days incubation at 37° C., resazurin, read on the 7th day, read-out: MIC
[4] = 300 μM malonyl-CoA, inhibitor 10 μM to 2000 μM, read-out: IC50

Compound | concentrations at which not toxic, s. cerevisiae cytotoxicity (S. cerevisiae) | concentrations at which not toxic, human fibroblast cytotoxicity (human fibroblast) | peak plasma concentration, 30 minutes after gavage [1] | peak plasma concentration, 90 minutes after gavage [1] | Plasma conc. 24 Hrs. after 1st dose ([1]; canola oil) | Plasma conc. 24 Hrs. after last dose ([1]; canola oil) | peak plasma concentration (FIG. 6A) ([1]; canola oil, gavage) | MIC (Mtb strain mc^2-7000; [3]) | IC50 (Mtb AccD6; [4]) | also measured
CC(C)NC(=O)Nc1ccc(Oc2nc3ccc(Cl)cc3s2)cc1 [NZ-331, 1-{4-[(6-chloro-1,3-benzothiazol-2-yl)oxy]phenyl}-3-(propan-2-yl)urea] | ≥ 100 µM | ≥ 100 µM | approximately 6 μL/mg | 9 | 17.7 (±2.7) μg/ml | 27.1 (±13.7) μg/ml | approximately 23 μL/mg | 0.8 µM (≈ 0.289 µg/mL) | 800 nM | peak plasma concentration (FIG. 11), 24 hours ([1]; two doses 200 mg/kg 8 hours apart, canola oil, 24 hours after gavage): 34.5; corrected peak plasma concentration (FIG. 6B) ([1]; two doses 200 mg/kg, canola oil, gavage, approx. 24 hours after first dose, 16 hours after second): approximately 138 μL/mg
CC(C)NC(=O)Nc1ccc(Oc2nc3ccc(F)cc3s2)cc1 [NZ-332, 1-{4-[(6-fluoro-1,3-benzothiazol-2-yl)oxy]phenyl}-3-(propan-2-yl)urea] | ≥ 100 µM | ≥ 100 µM | approximately 9 μL/mg | 13 | 2.2 (±0.6) μg/ml | 1.8 (±0.2) μg/ml | approximately 34 μL/mg | 0.8 µM (≈ 0.276 µg/mL) | 650 nM | –
CNC(=O)C(C)c1ccc(Oc2nc3ccc(Cl)cc3s2)cc1 (stereo not shown) [NZ-369, 2-{4-[(6-chloro-1,3-benzothiazol-2-yl)oxy]phenyl}-N-methylpropanamide] | ≥ 100 µM | ≥ 100 µM | – | – | 0.74 (±0.09) μg/ml | 0.57 (±0.07) μg/ml | – | 0.73 to 0.98 µM (≈ 0.253 to 0.34 µg/mL) | 870 nM | peak plasma concentration (FIG. 10) ([1]; single dose 200 mg/kg, canola oil, gavage, 2 hours after gavage): 27.4; peak plasma concentration (FIG. 11), 2 hours ([1]; two doses 200 mg/kg 8 hours apart, canola oil, 2 hours after gavage): 27.4
CC(Oc1ccc(Oc2nc3ccc(Cl)cc3o2)cc1)C(=O)O (stereo not shown) [fenoxaprop-p, 2-{4-[(6-chloro-1,3-benzoxazol-2-yl)oxy]phenoxy}propanoic acid, reference compound] | – | ≥ 100 µM | – | – | – | – | – | 25 µM (≈ 8.34 µg/mL) | 1500 nM | Percentage of Compound Bound (plasma protein; female, mouse): 98.58%; Percentage of Compound Recovered (plasma protein; female, mouse): 76%
CCOC(=O)[C@@H](C)Oc1ccc(Oc2nc3ccc(Cl)cc3o2)cc1 [fenoxaprop-p-ethyl, ethyl (2R)-2-{4-[(6-chloro-1,3-benzoxazol-2-yl)oxy]phenoxy}propanoate] | – | ≥ 100 µM | – | – | – | – | – | – | – | oral absorption [2]: absorbed rapidly; minimum rate of absorption (urinary excretion including cage washes and residues in tissues/organs) ([2]; po): at least 40 % of the administered dose; time at which test substance was already found in the blood ([2]; po): 15 min; time of peak (maximum) blood concentration ([2]; po): 6 to 8 h; stability under assay conditions (plasma esterase activity) (plasma protein): not stable under assay conditions; MIC (Mtb strain mc^2-7000): 1.56 µM (≈ 0.564 µg/mL); half-life (in vivo; initial phase): 9 to 11 h; half-life (in vivo; terminal phase): 68 to 75 h
C[C@@H](Oc1ccc(Oc2cnc3cc(Cl)ccc3n2)cc1)C(=O)O [quizalofop-p, (2R)-2-{4-[(6-chloroquinoxalin-2-yl)oxy]phenoxy}propanoic acid, reference compound] | – | – | – | – | – | – | – | – | – | peak plasma concentration of quizalofop-p ([1]; quizalofop-p-ethyl or quizalofop-p in carboxymethylcellulose or canola oil, gavage 50 mg/kg, 8 hours after gavage): 35; Percentage of Compound Bound (plasma protein; mouse plasma): 96.8%; Percentage of Compound Recovered (plasma protein; mouse plasma): 90%; IC50 (Mtb AccD6): 800 nM
